In article PMC11855478, “Bicyclic N,S-Acetals Containing Fused Cysteine-Amide System as New Heterocyclic Class Targeting Human Farnesyltransferase (FTase-h)” (International Journal of Molecular Sciences, 2025):
pIC50: −log10 of the molar value. Like-named read-outs stand apart in the source and are kept apart here.

Assays:
[1] = biological target: human farnesyltransferase (FTase) (Homo sapiens, UniProt P49354+P49356); experiment: FTase inhibitory assay (fluorescence, Dansyl-GCVLS); assay type: biochemical; conditions: for % FTI: inhibition of human FTase at 100 μM of tested compound, mean of two experiments; for pIC50: human FTase in vitro
Description: With 40 new products in hand, the determination of their inhibitory activity on human farnesyl-transferase (FTase) in vitro was first undertaken. Dimethyl sulfoxide (DMSO) was used as the negative control, and Chaetomellic acid A was the positive reference in all assays. At the outset, and in order to select only significant results, products with an inhibitory power greater than 60% at an initial screening concentration of 100 µM were retained for the determination of their IC50 and, therefore, for further discussion. Moreover, given the number of products tested, they are grouped into three subfamilies on the basis of the degree of the sulphur atom oxidation (series of sulfides, series of sulfoxides, and series of sulfones), and the results obtained are grouped in Table 1, Table 2 and Table 3.
3.3. FTase Inhibitory Assay
Assays were realized in 96-well plates, prepared with a Biomek NKMC and a Biomek 3000 from Beckman Coulter, and read on a Wallac Victor fluorimeter from PerkinElmer. Per well, 20 µL of farnesyl pyrophosphate (10 μM) was added to 180 µL of a solution containing 2 µL of varied concentrations of potential inhibitors (dissolved in DMSO) and 178 μL of a solution composed of 10 μL of partially purified recombinant human FTase (15 µg mL^−1) and 1.0 µL of Dansyl-GCVLS peptide (in the following buffer: 5.6 mM DTT, 5.6 mM MgCl2, 12 μM ZnCl2 and 0.2% (w/v) octyl-β-D-glucopyranoside, 52 mM Tris/HCl, pH 7.5). Fluorescence was recorded for 15 min (0.7 s per well, 20 repeats) at 30 °C with an excitation filter at 340 nm and an emission filter of 486 nm. Each measurement was reproduced twice, in duplicate. The kinetic experiments were realized under the same conditions, either with FPP as varied substrate with a constant concentration of Dns-GCVLS of 2.5 μM or with Dns-GCVLS as varied substrate with a constant concentration of FPP of 10 μM. Non-linear regressions were performed using the Excel software.

[2] = biological target: FTase; conditions: Figure 1, cited from earlier work

SMILES	% FTI [1]	also measured
COc1ccc(CNC(=O)[C@@H]2CS(=O)(=O)[C@@]3(C)c4ccccc4C(=O)N23)cc1OC [7bI]	13%	–
C[C@]12c3ccccc3C(=O)N1[C@H](C(=O)NCc1ccc(Cl)cc1Cl)CS2(=O)=O [7bH]	76%	FTase inhibitory activity (in words) [1]: false positive
C[C@]12c3ccccc3C(=O)N1[C@H](C(=O)NCc1cccc(C(F)(F)F)c1)C[S+]2[O-] (some centres unmarked) [5bD]	43%	–
C[C@]12c3ccccc3C(=O)N1[C@H](C(=O)NCc1ccccc1)CS2(=O)=O [7bA]	41%	–
C[C@]12c3ccccc3C(=O)N1[C@H](C(=O)NCc1ccc(Cl)cc1Cl)C[S+]2[O-] (some centres unmarked) [5bH]	31%	–
CS(=O)(=O)CC[C@H](NC(=O)c1cccc(CNC(=O)[C@@H](N)CS)c1)C(=O)O [C-AMBA-M]	–	pIC50 ([2]; known FTIs): 7.22
COc1cccc(CNC(=O)[C@@H]2CS(=O)(=O)[C@H]3c4ccccc4C(=O)N23)c1 [7aE]	42%	–
COc1ccc(CNC(=O)C2CS(=O)(=O)C3c4ccccc4C(=O)N23)cc1OC (centres unmarked) [7aI]	53%	–
CCCC[C@@H](C)/C=C(C)/C=C(\C)C(=O)NC1=C[C@@](O)(/C=C/C=C/C=C/C(=O)NC2=C(O)CCC2=O)[C@@H]2O[C@@H]2C1=O [Manumycin-A]	–	pIC50 ([2]; known FTIs): 7.52
COc1cccc(CNC(=O)[C@@H]2CS(=O)(=O)[C@@]3(C)c4ccccc4C(=O)N23)c1 [7bE]	53%	–
COc1ccc(CNC(=O)[C@@H]2CS(=O)(=O)[C@H]3c4ccccc4C(=O)N23)cc1 [7aF]	34%	–
COc1ccc(CNC(=O)[C@@H]2C[S+]([O-])[C@@]3(C)c4ccccc4C(=O)N23)cc1OC (some centres unmarked) [5bI]	0%	FTase inhibitory activity (in words) [1]: complete loss of inhibitory activity
COc1ccc(CNC(=O)[C@@H]2C[S+]([O-])[C@@]3(C)c4ccccc4C(=O)N23)cc1 (some centres unmarked) [5bF]	68%	–
COc1ccccc1CNC(=O)[C@@H]1CS(=O)(=O)[C@H]2c3ccccc3C(=O)N12 [7aG]	47%	–
CN1C(=O)[C@]23CC4=CC=C[C@H](O)[C@H]4N2C(=O)[C@@]1(CO)SS3 [Gliotoxin]	–	pIC50 ([2]; known FTI): 4.10; pIC50 ([2]; known FTIs): 7.10
COc1ccccc1CNC(=O)[C@@H]1C[S+]([O-])[C@@]2(C)c3ccccc3C(=O)N12 (some centres unmarked) [5bG]	87%	pIC50 [1]: 8.39
COc1ccc(CNC(=O)[C@@H]2CS(=O)(=O)[C@@]3(C)c4ccccc4C(=O)N23)cc1 [7bF]	44%	–
COC1=C(OC)[C@H](O)[C@H](C/C=C(\C)CC/C=C(\C)CCC=C(C)C)[C@@H](C)C1=O [Antroquinonol]	–	pIC50 ([2]; known FTIs): 5.52
CC12c3ccccc3C(=O)N1C(C(=O)NCc1ccccc1)C[S+]2[O-] (centres unmarked) [5bA]	30%	–
COc1cccc(CNC(=O)[C@@H]2C[S+]([O-])[C@@]3(C)c4ccccc4C(=O)N23)c1 (some centres unmarked) [5bE]	62%	–
COc1ccccc1CNC(=O)[C@@H]1CS(=O)(=O)[C@@]2(C)c3ccccc3C(=O)N12 [7bG]	74%	pIC50 [1]: 7.17
C[C@]12c3ccccc3C(=O)N1[C@H](C(=O)NCc1cccc(C(F)(F)F)c1)CS2(=O)=O [7bD]	32%	–
O=C(NCc1cccc(C(F)(F)F)c1)[C@@H]1CS(=O)(=O)[C@H]2c3ccccc3C(=O)N12 [7aD]	28%	–
CCCCCCCCCCCCCC/C(C(=O)O)=C(\C)C(=O)O [Ref., Chaetomellic acid A, reference compound]	100%	pIC50 [1]: 6.74
Cn1cncc1[C@@](N)(c1ccc(Cl)cc1)c1ccc2c(c1)c(-c1cccc(Cl)c1)cc(=O)n2C [Tipifarnib (R115777), Tipifarnib]	–	pIC50 ([2]; known FTIs): 8.10
O=C(NCc1ccccc1)[C@@H]1CS(=O)(=O)[C@H]2c3ccccc3C(=O)N12 [7aA]	20%	–
